# In US20180371408A1, “CELL CULTURES AND METHODS OF USE” (priority 2017, published 2018):
# How the values were obtained:
# [1] = system: testicular co-culture: spermatogonial cells (C18-4), Sertoli cells (TM4), Leydig cells (TM3); settings: co-culture; for in vitro call as reproductive toxicant: 48 h, based on cluster analysis; for effect on cell viability (NR uptake), in words: 48 h treatment, FIG. 6
# [2] = system: testicular cell co-culture (C18-4, TM4, TM3); assay: NR dye uptake assay, co-cultures treated with BPA and analogs (Example 2)
# Description: (§1) The testicular cell co-culture model was established as reported in Example 1 Briefly, mouse spermatogonial cell line C18-4 was established via germ cells isolated from the testes of 6 day old Balb/c mice. […] Mouse Leydig (TM3) and Sertoli (TM4) cell lines were purchased from ATCC, and these cells were isolated from prepubertal mouse gonads. C18-4 cells were maintained in DMEM composed of 5% FBS, and 100 U/ml streptomycin and penicillin in a 33° C., 5% CO2 humidified environment in a sub-confluent condition, and were passaged every 3-4 days TM3 and TM4 cells were cultured in DME/F12 composed of 1.25% FBS, 2.5% horse serum, and 100 U/ml streptomycin and penicillin at 37° C., 5% CO2 in a sub-confluent condition, and were passaged every 2-3 days. When the cells reached 70-80% confluence, a total of 1.5×10^4 cells per well were inoculated into a 96-well plate. […] The co-cultures were maintained in DMEM composed of 2.5% Nu-serum, and 100 U/ml streptomycin and penicillin in a 33° C., 5% CO2 humidified environment.
# (§2) Cell viability was determined through the Neutral Red uptake assay, which is based on the ability of viable cells to incorporate NR dye into their lysosomes, while the dye is not retained if the cell dies (Repetto et al., 2008). […] The vehicle controls were set as the co-cultures treated with the vehicle (0.05% DMSO) After the treatments, the culture medium was replaced by fresh medium containing NR (50 μg/ml). After a 3 h incubation period, the co-cultures were washed with phosphate buffered saline (PBS), and the NR dye was eluted with 100 μl of a 0.5% acetic acid/50% ethanol solution. The plate was then gently shaken, and absorbance values were measured at 540 nm with a Synergy HT microplate reader (BioTek, VT). Cell viability was presented as a percentage of the mean of vehicle controls after subtracting background readings.
# (§3) The data obtained from the HCS Studio·8 2.0 TargetActivation BioApplication, CellProfiler and CellProfiler Analyst were exported and further analyzed using the JMP statistical analysis package (SAS Institute, NC). To remove cell clumps, nuclei with areas larger than […] were excluded. […] For intra-plate normalization, data were normalized to the overall scaling factors, which was the mean of medians of the vehicle controls in each plate. The single cell-based data were averaged for the well-based condition. BrdU-positive cells were set by the total intensity of BrdU in the control at over 25,000 pixels. γ-H2AX positive cells were set by the total intensity of γ-H2AX in the control at over 120,000 pixels. The median lethal concentrations (LC50) were calculated using a nonlinear regression curve fit on GraphPad Prism 5 (San Diego, Calif.). To examine the correlation between the cytoskeleton and DNA damage responses in multinucleated cells, the Spearman correlation analysis was conducted between the total intensity of F-actin and γ-H2AX for 24, 48, and 72 h using cell-based data. Data were presented as mean±standard deviation (SD). Statistical significance was determined using one-way ANOVA followed by Tukey-Kramer all pairs comparison. The p-value less than 0.05 denoted a significant difference compared to the vehicle control (*).
# [3] = as above; settings: mouse
# Description: as §1, §2, §3
# [4] = system: testicular cell co-culture (C18-4, TM4, TM3); assay: High-content image analysis of nuclear morphology and cell number; assay type: cell-based, mouse
# Description: BrdU incorporation, cell fixation, BrdU, and DNA staining followed the previously published protocol (Liang, et al., 2017b). the determination of DNA damage responses and cytoskeleton analysis was conducted after cell fixation. The cells were then permeabilized by a 0.1% Triton X-100 in PBS, and then incubated with a mouse-anti phosphor-histone H2AX (Ser139) (γ-H2AX) overnight at 4° C. […] Finally, prior to acquiring the images, the cells were stained with Alexa Fluor 488 Phallodin for 30 minutes to stain the F-actin (Liang, et al., 2017)
# Multi-channel images were then automatically acquired using an Arrayscan™ VTI HCS reader (Thermo Scientific, MA) with the HCS Studio 2.0 Target Activation BioApplication module. Forty-nine fields per well were acquired at 20× and 40× magnification using a Hamamatsu ROCA-ER digital camera in combination with a 0.63× coupler and Carl Zeiss microscope optics in auto-focus mode. Image smoothing was conducted in order to reduce object fragmentation prior to the primary object identification that takes place in the first channel. Channel one (Ch1) applied the BGRFR 386_23 for Hoechst 33342 that was used for auto-focus, object identification, and segmentation. The border objects were then excluded. Channel two (Ch2) applied applied the BGRFR 549_15, which identified the BrdU staining and BGRFR 485_20 to identify the F-actin staining. BGRFR 650_13 was applied in Channel three (Ch3) and identified the γ-H2AX staining.
# Multi-Channel images were analyzed using HCS Studio™2.0 TargetActivation BioApplication. Multiple parameters of nuclei were characterized in HCA, including nuclei number, nuclear area, shape, and total DNA intensity. Nuclear shape measurements included P2A, a ratio of the nuclear perimeter squared to 4it*nucleus area (perimeter^2/4π*enuclear area) to evaluate nuclear smoothness, and LWR, a ratio of the nuclear length to width, to measure nuclear roundness. For a fairly round and smooth object, the values for P2A and LWR are around 1.0. Total intensity was defined as total pixel intensity within a cell in the respective channel. The total intensities of BrdU, γ-H2AX, and F-actin of the individual cells were also quantified. With forty-nine 20× images acquired from each well, at least 1,000 cells were analyzed per well, and single-cell based data were extracted for further analysis. The experiments were performed with at least four biological replicates and repeated twice.
# Data were presented as mean±standard deviation (SD).
# [5] = system: pregnancies and sexual development; settings: rats, doses of ˜80 and ˜280 mg/kg; cited from earlier work
# HepG2 cell line = settings: cited from earlier work
# reproductive system = settings: based on ToxCast database and literature search; cited from earlier work
# [6] = system: human breast cancer cells; settings: cited from earlier work
SMILES,in vitro call as reproductive toxicant [1],"doses significantly decreasing cell viability ([2]; 24, 48, and 72 h) [µM]",CC50 at 72 h [3] [µM],"doses reducing cell number ([4]; 24, 48, and 72 h) [µM]","doses with significant increase in nuclear area ([4]; 24, 48, and 72 h) [µM]",doses significantly increasing P2A ([4]; 24 and 48 h) [µM],doses significantly reducing LWR (nuclear roundness) ([4]; 72 h) [µM],doses significantly reducing P2A (nuclear smoothness) ([4]; 72 h) [µM],effect on pregnancies and sexual development [5],"effect on cell viability (NR uptake), in words [1]",doses significantly decreasing cell viability ([2]; 24 h) [µM],doses significantly reducing cell number ([4]; 24 h) [µM],also measured
"CC(C)(c1cc(Br)c(O)c(Br)c1)c1cc(Br)c(O)c(Br)c1 [TBBPA, 2,2′,6,6′-Tetrabromo-4,4′-isopropylidenediphenol]",positive,≥ 25,16.8,≥ 10,15,15,15,15,,,,,
"Oc1ccc(C(c2ccc(O)cc2)(C(F)(F)F)C(F)(F)F)cc1 [BPAF, 4,4′-(Hexafluoroisopropylidene)diphenol]",positive,≥ 5,8.5,≥ 2.5,,5,15,15,impaired pregnancies and sexual development,,,,"toxicity ranking among BPA and analogs ([2]; co-culture model, followed by TBBPA, BPA, and BPS): highest toxicity; doses significantly increasing LWR ([4]; 24 and 48 h): 5 µM; doses with significant increase in nuclear area ([4]; 24 h): 10 µM"
"CC(C)(c1ccc(O)cc1)c1ccc(O)cc1 [BPA, 4,4′-(propane-2,2-diyl) diphenol]",,,150,,100,,,,did not alter these reproductive endpoints,significant dose-dependent decrease of cell viability,≥ 200,100,dose not able to induce γ-H2AX (HepG2 cell line): > 100 µM; In vivo Reproductive Toxicity (reproductive system): +; doses significantly reducing LWR (nuclear roundness) ([4]; 48 and 72 h): ≥ 25 µM; doses significantly reducing LWR (nuclear roundness) ([4]; 24 h): ≥ 50 µM; doses significantly reducing P2A (nuclear smoothness) ([4]; 24 h): 50 µM; doses with significant decrease in nuclear area ([4]; 24 h): ≥ 10 µM; dose able to induce γ-H2AX [6]: 10 nM
"O=S(=O)(c1ccc(O)cc1)c1ccc(O)cc1 [BPS, 4,4′-Sulfonyldiphenol]",positive,,,,,,,,,significant dose-dependent decrease of cell viability,≥ 400,100,doses with significant increase in nuclear area ([4]; 72 h): 100 µM
